From patent publication US20240300937A1, “Substituted 6-(Pyrimidin-4-yl)Quinoline Compounds as Cyclin Dependent Kinase Inhibitors” (BeiGene, Ltd., priority 2022, published 2024)

Legend:
[1] = molecular target: CDK4/Cyclin D1 (Homo sapiens (Human), UniProt P11802); assay: CDK4/Cyclin D1 kinase TR-FRET inhibition assay; type: biochemical; conditions: 1 mM ATP, Rb (Ser780)-biotin substrate, read-out: CDK4D1 IC50
Protocol: (§1) Compounds disclosed herein were tested for inhibition of CDK4/Cyclin D1 or CDK6/Cyclin D3 kinase in an assay based on the time-resolved fluorescence-resonance energy transfer (TR-FRET) methodology. The assay was carried out in 384-well low volume black plates in a reaction mixture containing CDK4/Cyclin D1 or CDK6/Cyclin D3, 1 mM ATP, 0.15 μM Rb (Ser780)-biotin substrate and 0-10 μM compound in buffer containing 50 mM HEPES pH7.0, 0.02% NaN3, 0.01% BSA, 0.1 mM Orthovanadate, 50 mM MgCl2, 1 mM DTT and 0.005% Tween-20. The kinase was incubated with compound for 60 minutes at room temperature and the reaction was initiated by the addition of ATP and Rb (Ser780)-biotin substrate. After reaction at room temperature for 120 minutes, an equal volume of stop/detection solution was added according to the manufacture's instruction (Cisbio Bioassays). The stop/detection solution contained Streptavidin-XL665 and Anti-pRb (Ser780) mAb-Eu Cryptate in Detection buffer (Cisbio Bioassays). Plates were incubated at room temperature for 60 minutes, and the TR-FRET signals (ex337 nm, em665 nm/620 nm) were recorded on a PHERAstar FSX plate reader (BMG Labtech). The inhibition percentage of CDK4/Cyclin D1 or CDK6/Cyclin D3 kinase activity in presence of increasing concentrations of compounds was calculated based on the ratio of fluorescence at 665 nm to that at 620 nm. The IC50 for each compound was derived from fitting the data to the four-parameter logistic equation by Dotmatics.

[2] = molecular target: CDK6/Cyclin D3 (Homo sapiens (Human), UniProt Q00534); assay: CDK6/Cyclin D3 kinase TR-FRET inhibition assay; type: biochemical; conditions: 1 mM ATP, Rb (Ser780)-biotin substrate, read-out: CDK6D3 IC50
Protocol: as §1

Sequence of CDK4/Cyclin D1 (P11802 whole entry): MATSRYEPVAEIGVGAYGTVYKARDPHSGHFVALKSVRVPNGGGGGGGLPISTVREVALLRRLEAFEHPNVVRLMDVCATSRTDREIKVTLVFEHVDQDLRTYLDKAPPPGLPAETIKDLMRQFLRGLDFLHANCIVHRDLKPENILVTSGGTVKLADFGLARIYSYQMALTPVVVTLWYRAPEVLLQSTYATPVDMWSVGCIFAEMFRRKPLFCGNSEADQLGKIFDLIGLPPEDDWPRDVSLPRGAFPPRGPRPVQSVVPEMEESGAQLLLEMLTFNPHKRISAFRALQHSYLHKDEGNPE
Sequence of CDK4/Cyclin D1 (P24385 whole entry partner): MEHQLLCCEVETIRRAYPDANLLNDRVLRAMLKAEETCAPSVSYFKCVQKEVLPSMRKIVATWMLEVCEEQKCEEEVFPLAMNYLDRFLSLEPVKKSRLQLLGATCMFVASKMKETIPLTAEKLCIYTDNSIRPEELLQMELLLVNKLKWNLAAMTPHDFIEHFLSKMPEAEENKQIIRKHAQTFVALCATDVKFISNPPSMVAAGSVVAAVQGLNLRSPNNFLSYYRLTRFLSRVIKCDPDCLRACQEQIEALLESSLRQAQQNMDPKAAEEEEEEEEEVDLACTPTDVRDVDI
Sequence of CDK6/Cyclin D3 (Q00534 whole entry): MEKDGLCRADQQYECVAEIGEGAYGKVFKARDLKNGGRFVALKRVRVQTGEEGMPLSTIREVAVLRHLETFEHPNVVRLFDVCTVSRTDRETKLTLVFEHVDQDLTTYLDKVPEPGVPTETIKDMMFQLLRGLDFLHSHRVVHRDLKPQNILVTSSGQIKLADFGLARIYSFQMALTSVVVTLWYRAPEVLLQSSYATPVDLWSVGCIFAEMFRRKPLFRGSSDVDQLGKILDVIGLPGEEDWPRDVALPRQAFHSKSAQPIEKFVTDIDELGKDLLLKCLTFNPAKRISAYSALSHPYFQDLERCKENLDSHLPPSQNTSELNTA
Sequence of CDK6/Cyclin D3 (P30281 whole entry partner): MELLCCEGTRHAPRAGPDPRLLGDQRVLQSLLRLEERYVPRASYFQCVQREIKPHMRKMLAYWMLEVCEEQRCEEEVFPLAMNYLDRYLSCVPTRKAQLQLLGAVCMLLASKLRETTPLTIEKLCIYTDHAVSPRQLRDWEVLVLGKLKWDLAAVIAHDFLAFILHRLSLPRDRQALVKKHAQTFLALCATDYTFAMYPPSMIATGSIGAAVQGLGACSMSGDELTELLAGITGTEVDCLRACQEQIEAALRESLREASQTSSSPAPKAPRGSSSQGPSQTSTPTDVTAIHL

| IC50 [1] [nM] | IC50 [2] [nM] | Structure (SMILES) |
| --- | --- | --- |
| 4.2 | 67.2 | CC(C)c1c(CO)cnc2c(F)cc(-c3nc(N[C@@H]4CCOC[C@H]4O)ncc3F)cc12 [Example 51, (3S,4R)-4-((5-fluoro-4-(8-fluoro-3-(hydroxymethyl)-4-isopropylquinolin-6-yl)pyrimidin-2-yl)amino)tetrahydro-2H-pyran-3-ol] |
| 10 | 240 | CC(C)c1c(CNC2CC(F)(F)C2)cnc2c(F)cc(-c3nc(N[C@@H]4CCOC[C@H]4O)ncc3F)cc12 [Example 52, (3S,4R)-4-((4-(3-(((3,3-difluorocyclobutyl)amino)methyl)-8-fluoro-4-isopropylquinolin-6-yl)-5-fluoropyrimidin-2-yl)amino)tetrahydro-2H-pyran-3-ol] |
| 12 | 348 | CC(C)c1c(CN[C@@H]2CCCOC2)cnc2c(F)cc(-c3nc(N[C@@H]4CCOC[C@H]4O)ncc3F)cc12 [Example 53, (3S,4R)-4-((5-fluoro-4-(8-fluoro-4-isopropyl-3-((((R)-tetrahydro-2H-pyran-3-yl)amino)methyl)quinolin-6-yl)pyrimidin-2-yl)amino)tetrahydro-2H-pyran-3-ol] |
| 2.5 | 42.7 | CC(C)c1c(C(C)(C)O)cnc2c(F)cc(-c3nc(N[C@@H]4CCOC[C@H]4O)ncc3F)cc12 [Example 67, (3S,4R)-4-((5-fluoro-4-(8-fluoro-3-(2-hydroxypropan-2-yl)-4-isopropylquinolin-6-yl)pyrimidin-2-yl)amino)tetrahydro-2H-pyran-3-ol] |
| 10.9 | 198 | CC(C)c1c(C(C)(C)O)cnc2cc(F)c(-c3nc(N[C@@H]4CCOC[C@H]4O)ncc3F)cc12 [Example 116, (3S,4R)-4-((5-fluoro-4-(7-fluoro-3-(2-hydroxypropan-2-yl)-4-isopropylquinolin-6-yl)pyrimidin-2-yl)amino)tetrahydro-2H-pyran-3-ol] |
| 2.1 | 54 | CC(C)c1c(C(C)(C)O)cnc2c(F)cc(-c3nc(N[C@@H]4CCOC[C@H]4O)ncc3Cl)cc12 [Example 117, (3S,4R)-4-((5-chloro-4-(8-fluoro-3-(2-hydroxypropan-2-yl)-4-isopropylquinolin-6-yl)pyrimidin-2-yl)amino)tetrahydro-2H-pyran-3-ol] |
| 23.5 | 149 | Cc1c(-c2nc(N[C@@H]3CCOC[C@H]3O)ncc2F)ccc2ncc(CO)c(C(C)C)c12 [Example 120, (3S,4R)-4-((5-fluoro-4-(3-(hydroxymethyl)-4-isopropyl-5-methylquinolin-6-yl)pyrimidin-2-yl)amino)tetrahydro-2H-pyran-3-ol] |

Further lines, the compound ahead of its results:

| Structure (SMILES) | IC50 [1] [nM] | IC50 [2] [nM] |
| --- | --- | --- |
| CC(C)c1c(CN2C[C@@H](O)[C@H](F)C2)cnc2ccc(-c3nc(N[C@@H]4CCOC[C@H]4O)ncc3F)cc12 [Example 54, (3R,4R)-4-fluoro-1-((6-(5-fluoro-2-(((3S,4R)-3-hydroxytetrahydro-2H-pyran-4-yl)amino)pyrimidin-4-yl)-4-isopropylquinolin-3-yl)methyl)pyrrolidin-3-ol] | 19 | 361 |
| CC(C)c1c([C@H](C)N)cnc2ccc(-c3nc(N[C@@H]4CCOC[C@H]4O)ncc3F)cc12 [Example 55, (3S,4R)-4-((4-(3-((S)-1-aminoethyl)-4-isopropylquinolin-6-yl)-5-fluoropyrimidin-2-yl)amino)tetrahydro-2H-pyran-3-ol] | 34 | 1090 |
| CC(C)c1c([C@@H](C)N)cnc2ccc(-c3nc(N[C@@H]4CCOC[C@H]4O)ncc3F)cc12 [Example 56, (3S,4R)-4-((4-(3-((R)-1-aminoethyl)-4-isopropylquinolin-6-yl)-5-fluoropyrimidin-2-yl)amino)tetrahydro-2H-pyran-3-ol] | 3.5 | 214 |
| CC(C)c1c(CN2CCC[C@H](O)C2)cnc2ccc(-c3nc(N[C@@H]4CCOC[C@H]4O)ncc3F)cc12 [Example 57, (S)-1-((6-(5-fluoro-2-(((3S,4R)-3-hydroxytetrahydro-2H-pyran-4-yl)amino)pyrimidin-4-yl)-4-isopropylquinolin-3-yl)methyl)piperidin-3-ol] | 18 | 486 |
| CC(C)c1c(CN2CCOC[C@H]2C)cnc2ccc(-c3nc(N[C@@H]4CCOC[C@H]4O)ncc3F)cc12 [Example 58, (3S,4R)-4-((5-fluoro-4-(4-isopropyl-3-(((R)-3-methylmorpholino)methyl)quinolin-6-yl)pyrimidin-2-yl)amino)tetrahydro-2H-pyran-3-ol] | 14 | 406 |
| CC(C)c1c(CNc2ccccn2)cnc2ccc(-c3nc(N[C@@H]4CCOC[C@H]4O)ncc3F)cc12 [Example 59, (3S,4R)-4-((5-fluoro-4-(4-isopropyl-3-((pyridin-2-ylamino)methyl)quinolin-6-yl)pyrimidin-2-yl)amino)tetrahydro-2H-pyran-3-ol] | 46 | 3590 |
| CC(C)c1c(CN2C3CCCC2CC(O)C3)cnc2ccc(-c3nc(N[C@@H]4CCOC[C@H]4O)ncc3F)cc12 (stereo partly drawn) [Example 60, (1R,3R,5S)-9-((6-(5-fluoro-2-(((3S,4R)-3-hydroxytetrahydro-2H-pyran-4-yl)amino)pyrimidin-4-yl)-4-isopropylquinolin-3-yl)methyl)-9-azabicyclo[3.3.1]nonan-3-ol] | 15 | 585 |
| CC(C)c1c(CN2CCC[C@H](C#N)C2)cnc2ccc(-c3nc(N[C@@H]4CCOC[C@H]4O)ncc3F)cc12 [Example 61, (S)-1-((6-(5-fluoro-2-(((3S,4R)-3-hydroxytetrahydro-2H-pyran-4-yl)amino)pyrimidin-4-yl)-4-isopropylquinolin-3-yl)methyl)piperidine-3-carbonitrile] | 8.7 | 426 |
| CC(C)c1c(CN2CCC[C@@H](C#N)C2)cnc2ccc(-c3nc(N[C@@H]4CCOC[C@H]4O)ncc3F)cc12 [Example 62, (R)-1-((6-(5-fluoro-2-(((3S,4R)-3-hydroxytetrahydro-2H-pyran-4-yl)amino)pyrimidin-4-yl)-4-isopropylquinolin-3-yl)methyl)piperidine-3-carbonitrile] | 11 | 572 |
| CC(C)c1c(CN2[C@H](C)COC[C@@H]2C)cnc2ccc(-c3nc(N[C@@H]4CCOC[C@H]4O)ncc3F)cc12 [Example 68] | 8.7 | 395 |
| CC(C)c1c(CN2[C@H](C)COC[C@H]2C)cnc2ccc(-c3nc(N[C@@H]4CCOC[C@H]4O)ncc3F)cc12 [Example 69, (3S,4R)-4-((4-(3-(((3R,5R)-3,5-dimethylmorpholino)methyl)-4-isopropylquinolin-6-yl)-5-fluoropyrimidin-2-yl)amino)tetrahydro-2H-pyran-3-ol] | 8.3 | 355 |
| CC(C)c1c(C(C)(C)O)cnc2cc(Cl)c(-c3nc(N[C@@H]4CCOC[C@H]4O)ncc3F)cc12 [Example 70, (3S,4R)-4-((4-(7-chloro-3-(2-hydroxypropan-2-yl)4-isopropylquinolin-6-yl)-5-fluoropyrimidin-2-yl)amino)tetrahydro-2H-pyran-3-ol] | 31 | 508 |
| Cc1c(-c2nc(N[C@@H]3CCOC[C@H]3O)ncc2F)ccc2ncc(CN)c(C(C)C)c12 [Example 145, (3S,4R)-4-((4-(3-(aminomethyl)-4-isopropyl-5-methylquinolin-6-yl)-5-fluoropyrimidin-2-yl)amino)tetrahydro-2H-pyran-3-ol] | 1.7 | 66.1 |
| CC(C)c1cc(C(C)(C)O)nc2ccc(-c3nc(N[C@@H]4CCOC[C@H]4O)ncc3F)cc12 [Example 206, (3S,4R)-4-((5-fluoro-4-(2-(2-hydroxypropan-2-yl)-4-isopropylquinolin-6-yl)pyrimidin-2-yl)amino)tetrahydro-2H-pyran-3-ol] | 185 | 1500 |
| CC(C)c1nc(C(C)(C)O)nc2ccc(-c3nc(N[C@@H]4CCOC[C@H]4O)ncc3F)cc12 [Example 207, (3S,4R)-4-((5-fluoro-4-(2-(2-hydroxypropan-2-yl)-4-isopropylquinazolin-6-yl)pyrimidin-2-yl)amino)tetrahydro-2H-pyran-3-ol] | 536 | 3020 |
| CC(C)c1cc(C(C)(C)O)nc2c(F)cc(-c3nc(N[C@@H]4CCOC[C@H]4O)ncc3Cl)cc12 [Example 208, (3S,4R)-4-((5-chloro-4-(8-fluoro-2-(2-hydroxypropan-2-yl)-4-isopropylquinolin-6-yl)pyrimidin-2-yl)amino)tetrahydro-2H-pyran-3-ol] | 146 | 497 |
| CC(C)c1nc(C(C)(C)O)nc2c(F)cc(-c3nc(N[C@@H]4CCOC[C@H]4O)ncc3Cl)cc12 [Example 209, (3S,4R)-4-((5-chloro-4-(8-fluoro-2-(2-hydroxypropan-2-yl)-4-isopropylquinazolin-6-yl)pyrimidin-2-yl)amino)tetrahydro-2H-pyran-3-ol] | 1770 | 4990 |
